{"source": "patent US7005274B1", "about": "“Methods and compositions for diagnosing and treating arthritic disorders and regulating bone mass” (MIGENIX Corp., priority 1999, dated 2006)", "key": {"alkaline phosphatase": {"test_system": "alkaline phosphatase", "test": "PPi-degrading alkaline phosphatase activity (control study)", "format": "cell-based", "conditions": "not shown"}, "NTPPPH": {"test_system": "NTPPPH", "test": "Cell-associated NTPPPH activity (control study)", "format": "cell-based", "conditions": "not shown"}, "[1]": {"test_system": "articular chondrocytes and TC28 cells", "test": "Level of glycolysis", "format": "cell-based, human", "conditions": "0.025 mM antimycin A or 0.02 μM oligomycin"}, "[2]": {"test_system": "articular chondrocytes and TC28 cells", "test": "Cell viability by trypan blue dye exclusion", "format": "cell-based, human", "conditions": "0.025 mM antimycin A or 0.02 μM oligomycin, 72 hours", "method": "Nonlethal but mitochondrial effective doses of antimycin A were determined as follows. Progressively higher concentrations of antimycin A (Sigma Chemical Co., St. Louis, Mo.) were added to cultured articular condrocytes and TC-28 cells. Cell proliferation was measured by incorporation of fluorogenic H33258 (Calbiochem, La Jolla, Calif.) essentially according to the manufacturer's instructions, and cell viability was assessed by trypan blue dye exclusion (Medzihradsky et al., Biochem. Med. 13:164–177, 1975), essentially according to the instructions of the manufacturer (Sigma).\nThe objective of these studies was to find, if possible, a level of antimycin A that depressed total cellular ATP levels without causing more than 10% loss of viability. In FIG. 1A, articular chondrocytes or TC28 cells (5×10^5) in 5 ml were studied in triplicate in the presence of antimycin (or oligomycin, see next Example) at the indicated concentrations, administered every 24 hours for a total of 72 hours, and total intracellular ATP concentrations were determined as described above. […]"}, "[3]": {"test_system": "TC28 cells or articular chondrocytes expressing NTPPPH PC-1", "test": "PPi elaboration by PC-1 transfectants", "format": "cell-based", "conditions": "in the presence of antimycin A or oligomycin", "method": "In related experiments, the effects on PPi elaboration by PC-1 transfectants of either oligomycin or antimycin A, alone or in combination with TGFβ, were determined (FIG. 4). Briefly, transient transfections were performed on 5×10^5 TC28 cells in a 35 mm tissue culture dish using Lipofectamine Plus™ (Life Technologies, Grand Island, N.Y.). Empty plasmid DNA (2 μg) or wild-type human PC-1-encoding DNA in plasmid pcDNA3.1 (2 μg) (Johnson et al., 1999 Arth. Rheum. 42:1986; Terkeltaub et al., 1994 Arthritis Rheum. 37:934–41) was added to the lipid reagent following a complex formation of the DNA to the “Plus” reagent according to the supplier's instructions, and then incubated with cells for 3 hours at 37° C. in DMEM/Fi2 medium containing 1% FCS. Cells were then washed with phosphate buffered saline (PBS), returned to complete culture medium and incubated an additional 72 hours. […] For adenoviral gene transfer, the protocol of Johnson et al. was followed (1999 Arth. Rheum. 42:1986) using articular chondrocytes which, unlike TC28 cells, cannot be efficiently transfected with plasmid DNA. […] In sum, mitochondrial function, particularly oxidative phosphorylation, appeared to provide ATP that was critical for extracellular matrix synthesis and PPi elaboration in chondrocytes."}, "chondrocytes": {"test_system": "chondrocytes", "test": "Proteoglycan synthesis, [35S] labeling", "format": "cell-based, human", "conditions": "72 hours after addition; 0.025 mM antimycin A or non-lethal dose of oligomycin", "method": "Proteoglycan synthesis was measured by [^35S]-labeling and uptake of the isotope, as well as by biosynthetic incorporation of the isotope (van Osch et al., Matrix Biol. 17:413–424, 1998) into proteoglycans extracted and subsequently purified by column chromatography on Sephadex® G-25 (Pharmacia, Piscataway, N.J.) (FIG. 3). Chondrocytes or TC28 cells (3×10^6) were plated in 30 ml of medium in a 10-cm diameter tissue culture dish and the medium was made 0.025 mM in antimycin (or 0.02 μg/ml oligomycin) every 24 hours for 72 hours. After 48 hours of culture, 20 μCi/ml of [^35S]sodium sulfate was added to each plate in serum-free medium. After a total of 72 hours, the medium was collected and the cells were washed once with phosphate buffered saline (PBS) and then scraped into 0.5 M NaOH and mixed for 48 hours at 4° C. The medium and the cell extract were eluted from Sephadex® (Pharmacia, Piscataway, N.J.) G-25M PD-10 columns with 4M guanidine-HCl. The eluted portion was added to scintillation fluid and counted (n=9 replicates in FIG. 3; *=P<0.05 by Student's t-test)."}, "[4]": {"test_system": "articular chondrocytes and TC28 cells", "test": "Oxygen consumption with a Clark electrode (respiratory rate)", "format": "cell-based, human", "conditions": "SIN-1 500 μM; NOC-12 250 μM; antimycin A and oligomycin concentration not stated"}, "[5]": {"test_system": "articular chondrocytes and TC28 cells", "test": "Intracellular ATP, statements covering both cell preparations", "format": "cell-based, human", "conditions": "for depletion of intracellular ATP levels: 0.025 mM antimycin A or 0.02 μM oligomycin, administered every 24 hours for 72 hours; for intracellular ATP levels (qualitative): SIN-1 500 μM, NOC-12 250 μM, antimycin A and oligomycin concentration not stated; for effect on TGFβ-induced increase of intracellular ATP: antimycin A 0.025 mM or oligomycin 0.02 μM additionally present", "method": "Levels of total cellular ATP were measured by a modification of luciferase-based assays known in the art (Lin et al., Anal. Biochem. 24:531–540, 1968); related assays and modifications may alternatively be used (see, e.g., Turman et al., In Vitro Cell. Dev. Biol. Anim. 32:1–4, 1996, for an assay format that uses a fluorescent plate reader). In brief, 2×10^6 cells were washed and pelleted in 10 ml phosphate-buffered saline (PBS). The cell pellets were snap-frozen in a dry ice/ethanol bath, after which […] of 0.2 M HCl was added, followed by 0.3 ml of 2 mM glycine (pH 9.0). Samples were heated at 100° C. for five minutes, then placed on ice. A standard curve was developed using 0 to 500 pmol of purified ATP (disodium salt). One hundred (100) μl of the cell extract, or purified ATP standard, was added to an equal volume of the ATP assay mixture (containing MgSO4, DTT, EDTA, luciferase and luciferin, all from the Sigma Bioluminescence Assay Kit and all diluted 1:25). Following a 5 second incubation and 15 second integration, samples were read on a TD-20/20 Luminometer (Turner Designs, Sunnyvale, Calif.).\nIn FIG. 1A, articular chondrocytes or TC28 cells (5×10^5) in 5 ml were studied in triplicate in the presence of antimycin (or oligomycin, see next Example) at the indicated concentrations, administered every 24 hours for a total of 72 hours, and total intracellular ATP concentrations were determined as described above. Viability determinations are shown in FIG. 1B, where 2×10^4 chondrocytes or TC28 cells in 0.2 ml were cultured in triplicate in the presence of antimycin (or oligomycin) at the indicated concentrations, administered every 24 hours for a total of 72 hours, and cell viability was determined by trypan blue dye exclusion (>200 cells counted for each replicate)."}}, "data": [{"compound": "CC[C@H]1/C=C/C=C/C[C@@H](C)[C@H](O)[C@@](C)(O)C(=O)[C@@H](C)[C@H](O)[C@@H](C)C(=O)[C@@H](C)[C@H](O)[C@@H](C)/C=C/C(=O)O[C@@H]2[C@H](C)[C@H](CC1)O[C@]1(CC[C@H](C)[C@H](C[C@@H](C)O)O1)[C@H]2C", "note": "[oligomycin]", "values": [{"measurement": "PPi-degrading alkaline phosphatase activity", "setting": "alkaline phosphatase", "value": "neither agent altered PPi-degrading alkaline phosphatase activity"}, {"measurement": "cell-associated NTPPPH activity", "setting": "NTPPPH", "value": "neither oligomycin nor antimycin treatment suppressed cell-associated NTPPPH activity"}, {"measurement": "effect on level of glycolysis", "setting": "[1]", "value": "without altering the constitutively high level of glycolysis"}, {"measurement": "loss of viability", "setting": "[2]", "value": "less than 10%"}, {"measurement": "intracellular and extracellular PPi levels in NTPPPH PC-1 transfectants", "setting": "[3]", "value": "unable to increase intracellular and extracellular PPi levels"}, {"measurement": "depression of proteoglycan synthesis", "setting": "chondrocytes", "value": "more than 50%"}, {"measurement": "respiratory rates", "setting": "[4]", "value": "inhibited respiratory rates"}, {"measurement": "depletion of intracellular ATP levels", "setting": "[5]", "value": "50–80%"}, {"measurement": "intracellular ATP levels (qualitative)", "setting": "[5]", "value": "depressed intracellular ATP levels"}, {"measurement": "effect on TGFβ-induced increase of intracellular ATP", "setting": "[5]", "value": "this effect was blocked"}]}, {"compound": "antimycin A", "values": [{"measurement": "PPi-degrading alkaline phosphatase activity", "setting": "alkaline phosphatase", "value": "neither agent altered PPi-degrading alkaline phosphatase activity"}, {"measurement": "cell-associated NTPPPH activity", "setting": "NTPPPH", "value": "neither oligomycin nor antimycin treatment suppressed cell-associated NTPPPH activity"}, {"measurement": "effect on level of glycolysis", "setting": "[1]", "value": "without altering the constitutively high level of glycolysis"}, {"measurement": "loss of viability", "setting": "[2]", "value": "less than 10%"}, {"measurement": "intracellular and extracellular PPi levels in NTPPPH PC-1 transfectants", "setting": "[3]", "value": "unable to increase intracellular and extracellular PPi levels"}, {"measurement": "depression of proteoglycan synthesis", "setting": "chondrocytes", "value": "more than 50%"}, {"measurement": "respiratory rates", "setting": "[4]", "value": "inhibited respiratory rates"}, {"measurement": "depletion of intracellular ATP levels", "setting": "[5]", "value": "50–80%"}, {"measurement": "intracellular ATP levels (qualitative)", "setting": "[5]", "value": "depressed intracellular ATP levels"}, {"measurement": "effect on TGFβ-induced increase of intracellular ATP", "setting": "[5]", "value": "this effect was blocked"}]}]}
